Like-named read-outs stand apart in the source and are kept apart here.
Legend:
[1] = 1440 min
Method: Method 1: Investigation of the Stability of Unsaturated Fatty Acids in the Formulations
The stabilizing action of substances on polyunsaturated fatty acids was investigated as follows:
Test A for Water-Soluble Substances:
0.125 mg of unsaturated fatty acid or Na salt (see tables) (sodium arachidonate, from Sigma, Munich, Germany) is dissolved in 0.05 ml of water. 0.2 ml of aqueous solution which contains 2 mg of stabilizer and can additionally contain 2 mg of stimulator is mixed in (cf. Table 1), 0.1 ml is then taken out immediately, extracted and analysed (see below). Further processing according to modification 1 or 2.
Modification 1 for Aqueous Solutions
After 24 hours incubation at 37° C., 0.1 ml is again taken, extracted and analysed (see below).
Modification 2 for Solid Mixtures (Lyophilisates)
The test solution is lyophilized, the lyophilisate is incubated for 24 hours at 37° C. and then dissolved again in the previous quantity of water, and 0.1 ml is taken, extracted and analysed (see below).
Test B for Water-Insoluble Substances:
0.125 mg of unsaturated fatty acid (arachidonic acid, 5,8,11,14,17-eicosapentaenoic acid or 8,11,14-eicosatrienoic acid, from Sigma, Munich) is dissolved in 0.05 ml of ethanol or dimethyl sulfoxide. 0.2 ml of ethanol (or dimethyl sulfoxide) which contains 2 mg of stabilizer and can additionally contain 2 mg of the stimulator (cf. Table 1) is added thereto, and 0.1 ml is taken immediately and, as below, extracted and analysed. Further treatment according to modification 1 or 2.
Modification 1 for Solutions
After 24 hours' incubation at 37° C., 0.1 ml is again taken, mixed with 0.1 ml of water, extracted and analysed.
Modification 2 for Solid Mixtures
The remaining solution is freed of solvent, incubated for 24 hours at 37° C. and then dissolved again in 0.15 ml of solvent, and 0.1 ml is taken, mixed with 0.1 ml of water, extracted and analysed.
0.05 ml of 1.2M aqueous citric acid solution is added to the samples obtained, and the samples are extracted with twice 0.5 ml of ethyl acetate, the ethyl acetate is removed from the combined extracts and the residue is dissolved in 0.8 ml of methanol and analysed by means of high-pressure liquid chromatography (HPLC) (Rad Pak C-18 column, 100×8 mm, from Waters, Konigstein, Germany, 1.5 ml/minute, solvent 800 ml of methanol, 200 ml of water and 0.1 ml of glacial acetic acid). The separation is monitored with a commercially available UV detector at 206 nm.
The prostaglandins PGE2, PGF2 alpha and PGD2 as products from arachidonic acid where quantified by means of method 2, and the sum was related as "total prostaglandin" to 100%. The quantity of "total prostaglandin" formed without the addition of a stimulator was set at f=1; the quantity formed after stimulation was related thereto. f=2 or f=3 therefore means twice or three times the stimulation under the conditions of method 2. The stability of the sample was investigated by means of method 1 (right-hand column). […] Values greater than 25-28% therefore represent a stabilization, and values smaller than 25-28% represent a destabilization. Example No. 1 was carried out without a stimulator.

[2] = molecular target: T1, enzyme (from seminal vesicles of sheep) (Ovis aries, UniProt P05979)
T1 sequence (P05979 25-600): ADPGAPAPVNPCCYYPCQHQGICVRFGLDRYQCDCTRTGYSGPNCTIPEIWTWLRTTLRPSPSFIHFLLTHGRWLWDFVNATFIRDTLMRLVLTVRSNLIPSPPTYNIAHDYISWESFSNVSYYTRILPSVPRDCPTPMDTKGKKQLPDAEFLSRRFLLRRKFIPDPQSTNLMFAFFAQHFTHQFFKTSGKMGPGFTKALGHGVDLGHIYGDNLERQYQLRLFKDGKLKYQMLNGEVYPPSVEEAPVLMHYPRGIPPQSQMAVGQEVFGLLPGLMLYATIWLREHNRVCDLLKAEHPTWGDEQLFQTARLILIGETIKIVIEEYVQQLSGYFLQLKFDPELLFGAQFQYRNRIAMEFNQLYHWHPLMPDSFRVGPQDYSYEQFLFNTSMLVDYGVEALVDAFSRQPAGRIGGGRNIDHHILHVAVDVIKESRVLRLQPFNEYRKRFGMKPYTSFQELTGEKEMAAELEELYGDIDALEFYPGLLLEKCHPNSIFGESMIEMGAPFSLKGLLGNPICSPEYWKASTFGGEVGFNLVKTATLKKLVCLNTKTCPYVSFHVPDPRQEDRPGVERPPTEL
Method: Method 2: Prostaglandin Synthesis
0.3 ml of 0.03M potassium phosphate buffer of pH=8.0 contains 0.5 mg of enzyme (from seminal vesicles of sheep) (Biochemistry 10 (1971) 2372) or homogenate of the inner kidney medulla (Life Sciences 26 (1980) 765), 2.75 μg of ^14 C-arachidonic acid (0.5 μCi) and 0.5 mg of stimulator, and, if appropriate, 0.5 mg of stabilizer substance (see Table 1). After 10 minutes' incubation at 37° C., the reaction is stopped with 0.05 ml of 1.2M citric acid and the mixture is extracted with twice 0.5 ml of ethyl acetate, the combined extracts are freed of solvent, and the residue is dissolved in 0.2 ml of methanol, diluted 1:1 with water and separated by HPLC (nucleosil C-18 column, 125×4.6 mm, from Bischoff, Leonberg, Germany, solvent 300 ml of acetonitrile, 700 ml of water and 1 ml of glacial acetic acid and after 30 minutes pure methanol). The separation of the radioactive fractions is followed by a monitor (LB 504 from Berthold, Wildbad, Germany). The products formed, such as 6-keto-prostaglandin F2alpha, prostaglandin E2, prostaglandin F2alpha and prostaglandin D2, are separated under these conditions.
The prostaglandins PGE2, PGF2 alpha and PGD2 as products from arachidonic acid where quantified by means of method 2, and the sum was related as "total prostaglandin" to 100%. The quantity of "total prostaglandin" formed without the addition of a stimulator was set at f=1; the quantity formed after stimulation was related thereto. f=2 or f=3 therefore means twice or three times the stimulation under the conditions of method 2. The stability of the sample was investigated by means of method 1 (right-hand column). […] Values greater than 25-28% therefore represent a stabilization, and values smaller than 25-28% represent a destabilization. Example No. 1 was carried out without a stimulator. […] The substances test with respect to stabilization (see Method 1 for quantities) were: A) aqueous solution without stabilizer addition, B) ethanolic solution without further addition, C) pyridine solution, D) with rutin, predissolved in dimethyl sulfoxide, dimethyl sulfoxide then stripped off, E) like B) with lecithin, ethanol stripped off, F) like A) with cytochrome c from horse heart (from Boehringer, Mannheim, Germany), G) like A) with methemoglobin (human) (from Sigman, Munich, Germany), H) like A) with bovine serum albumin (from Calbiochem, Frankfurt, Germany), J) like A) or B), but solvent stripped off, K) like J) with cytochrome c, L) like J) with hemoglobin (human) (from Behringwerke, Marburg, Germany), and M) like J) with human serum albumin (from Behringwerke, Marburg, Germany).

[3] = Storage of sodium arachidonate solution at room temperature for 6 weeks; format: physicochemical; settings: water; solution without additions, after 6 weeks at room temperature; read-out: arachidonic acid content
Method: 50 mg of sodium arachidonate, 500 mg of bovine serum albumin and 500 mg of L-tyrosine are dissolved under sterile conditions in 10 ml of twice distilled water and, likewise under sterile conditions, stored in a brown bottle. 93.5% of the arachidonic acid originally present are recovered after 6 weeks' storage at room temperature, whereas the same sodium arachidonate solution without additions virtually no longer contain any arachidonic acid after this time (content <0.8). The stabilized solution prepared in this way

[4] = Table 2, share of total prostaglandin
[5] = seminal vesicle enzyme, 10 min, pH 8
[6] = Table 1, share of total prostaglandin (=100%)

| Compound | Stabilization (% remaining unsaturated fatty acid by Method 1) [1] [%] | PGD2 % [2, 4] [%] | PGE2 % [2, 4] [%] | PGF2alpha % [2, 4] [%] | relative total prostaglandin f [2, 5] | remaining at 1008 h [3] [%] | Stability (% remaining fatty acid by Method 1) [1] [%] | relative total prostaglandin f ([2]; Table 1, 0.5 mg stimulator, 10 min 37° C., without stimulator f=1) | PGD2 % [2, 6] [%] | PGE2 % [2, 6] [%] | PGF2alpha % [2, 6] [%] |
| --- | --- | --- | --- | --- | --- | --- | --- | --- | --- | --- | --- |
| COC1=C(OC)C(=O)C(C/C=C(\C)CC/C=C(\C)CC/C=C(\C)CC/C=C(\C)CC/C=C(\C)CC/C=C(\C)CC/C=C(\C)CC/C=C(\C)CC/C=C(\C)CCC=C(C)C)=C(C)C1=O [Example 47, Vitamin Q10, reference compound] | 8 | 14 | 8 | 78 | 0.8 |  |  |  |  |  |  |
| O=C(CCc1ccc(O)cc1)c1c(O)cc(O)cc1O[C@@H]1O[C@H](CO)[C@@H](O)[C@H](O)[C@H]1O [Example 53, Phlorizin] | 97 | 18 | 80 | 2 | 3 |  |  |  |  |  |  |
| C[C@@H]1O[C@@H](O[C@H]2[C@H](Oc3cc(O)c4c(c3)O[C@H](c3ccc(O)cc3)CC4=O)O[C@H](CO)[C@@H](O)[C@@H]2O)[C@H](O)[C@H](O)[C@H]1O [Example 54, Naringin] | 96 | 15 | 83 | 2 | 2 |  |  |  |  |  |  |
| O=C1C[C@@H](c2ccc(O)cc2)Oc2cc(O)cc(O)c21 [Example 55, Naringenin] | 96 | 20 | 80 | 0 | 1.5 |  |  |  |  |  |  |
| O=c1c(O)c(-c2ccc(O)cc2)oc2cc(O)cc(O)c12 [Example 56, Kaempferol] | 98 | 13 | 76 | 11 | 0.5 |  |  |  |  |  |  |
| Oc1cc(O)c2c(c1)O[C@H](c1ccc(O)c(O)c1)[C@H](O)C2 [Example 59, Epicatechin] | 89 | 12 | 71 | 17 |  |  |  |  |  |  |  |
| CCCCC/C=C\C/C=C\C/C=C\C/C=C\CCCC(=O)O [sodium arachidonate] |  |  |  |  |  | < 0.8 |  |  |  |  |  |
| TrpMetAspPhe [Example 28] |  |  |  |  |  |  | 97 | 11.8 | 20 | 73 | 7 |
